This is an account of results in patent US12685735B2 (Foghorn Therapeutics Inc., priority 2020, dated 2026).

Experiment [1] has as its target BRG-1 (Homo sapiens, UniProt P51532). Description: ATPase catalytic activity assay of BRG-1 (ADP-Glo). The note with it: ATPase catalytic activity, ADP-Glo; for IC50: read-out: BRG1 IC50 (μM)*; for Emax: read-out: BRG1 Max % Inhibition. The class given is biochemical. Summed up: (§1)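 Luminescent ADP-Glo readout of ADP generated by ATP hydrolysis. Post-reaction: ATP depletion reagent, RT 40 min; detection reagent converting ADP→ATP, RT 60 min; luminescence read.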
Background: ADP-Glo turns the ADP formed in a reaction into a luminescent signal.

Experiment [2] has as its target BRM (Homo sapiens, UniProt P51531). The experiment in a line: ATPase catalytic activity assay of BRM (ADP-Glo). In kind it is biochemical. To be noted: for IC50: read-out: BRM IC50 (μM)*. A digest of the protocol:
as §1

Chain of BRG-1 (P51532 whole entry): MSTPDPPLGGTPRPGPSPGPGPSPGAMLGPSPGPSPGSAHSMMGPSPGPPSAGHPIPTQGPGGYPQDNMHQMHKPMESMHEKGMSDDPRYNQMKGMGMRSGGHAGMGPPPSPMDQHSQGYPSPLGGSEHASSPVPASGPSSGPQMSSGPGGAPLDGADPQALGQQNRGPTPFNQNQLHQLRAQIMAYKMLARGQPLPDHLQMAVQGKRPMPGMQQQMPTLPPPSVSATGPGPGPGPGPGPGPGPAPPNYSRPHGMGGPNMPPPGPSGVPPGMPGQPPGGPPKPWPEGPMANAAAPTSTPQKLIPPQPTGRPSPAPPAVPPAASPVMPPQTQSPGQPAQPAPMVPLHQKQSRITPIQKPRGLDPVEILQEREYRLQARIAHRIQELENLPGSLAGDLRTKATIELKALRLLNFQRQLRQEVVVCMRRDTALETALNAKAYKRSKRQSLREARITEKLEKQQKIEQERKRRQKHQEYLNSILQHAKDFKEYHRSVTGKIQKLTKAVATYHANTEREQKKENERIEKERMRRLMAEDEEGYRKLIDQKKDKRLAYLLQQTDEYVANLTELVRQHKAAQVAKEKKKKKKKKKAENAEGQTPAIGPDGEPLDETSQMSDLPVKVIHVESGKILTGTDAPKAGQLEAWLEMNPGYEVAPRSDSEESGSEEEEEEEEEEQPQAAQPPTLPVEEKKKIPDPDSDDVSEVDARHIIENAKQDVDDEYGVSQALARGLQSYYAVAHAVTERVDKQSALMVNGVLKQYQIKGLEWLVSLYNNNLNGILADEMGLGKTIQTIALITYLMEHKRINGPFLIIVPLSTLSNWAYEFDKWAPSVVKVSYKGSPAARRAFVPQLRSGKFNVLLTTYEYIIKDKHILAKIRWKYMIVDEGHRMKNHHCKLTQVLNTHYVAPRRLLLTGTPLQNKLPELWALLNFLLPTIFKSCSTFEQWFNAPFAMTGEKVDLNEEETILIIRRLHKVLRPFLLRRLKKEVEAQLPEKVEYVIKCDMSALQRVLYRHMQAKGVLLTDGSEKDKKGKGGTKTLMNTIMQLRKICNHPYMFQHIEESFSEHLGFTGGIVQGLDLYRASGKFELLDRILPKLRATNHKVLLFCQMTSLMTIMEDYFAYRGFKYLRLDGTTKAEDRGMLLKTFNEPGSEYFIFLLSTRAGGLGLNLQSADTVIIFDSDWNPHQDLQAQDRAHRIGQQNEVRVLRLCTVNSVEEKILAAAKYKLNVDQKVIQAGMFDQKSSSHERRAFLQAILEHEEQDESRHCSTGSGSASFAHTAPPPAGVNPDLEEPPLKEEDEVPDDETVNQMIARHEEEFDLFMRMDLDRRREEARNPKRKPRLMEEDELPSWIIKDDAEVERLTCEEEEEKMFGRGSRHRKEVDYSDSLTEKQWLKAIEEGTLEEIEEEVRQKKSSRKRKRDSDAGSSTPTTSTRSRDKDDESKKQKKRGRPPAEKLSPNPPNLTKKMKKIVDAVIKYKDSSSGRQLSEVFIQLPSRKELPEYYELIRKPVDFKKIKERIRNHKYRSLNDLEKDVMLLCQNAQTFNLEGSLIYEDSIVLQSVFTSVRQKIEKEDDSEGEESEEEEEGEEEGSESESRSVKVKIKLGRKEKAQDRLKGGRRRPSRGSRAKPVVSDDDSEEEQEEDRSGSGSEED
Chain of BRM (P51531 whole entry): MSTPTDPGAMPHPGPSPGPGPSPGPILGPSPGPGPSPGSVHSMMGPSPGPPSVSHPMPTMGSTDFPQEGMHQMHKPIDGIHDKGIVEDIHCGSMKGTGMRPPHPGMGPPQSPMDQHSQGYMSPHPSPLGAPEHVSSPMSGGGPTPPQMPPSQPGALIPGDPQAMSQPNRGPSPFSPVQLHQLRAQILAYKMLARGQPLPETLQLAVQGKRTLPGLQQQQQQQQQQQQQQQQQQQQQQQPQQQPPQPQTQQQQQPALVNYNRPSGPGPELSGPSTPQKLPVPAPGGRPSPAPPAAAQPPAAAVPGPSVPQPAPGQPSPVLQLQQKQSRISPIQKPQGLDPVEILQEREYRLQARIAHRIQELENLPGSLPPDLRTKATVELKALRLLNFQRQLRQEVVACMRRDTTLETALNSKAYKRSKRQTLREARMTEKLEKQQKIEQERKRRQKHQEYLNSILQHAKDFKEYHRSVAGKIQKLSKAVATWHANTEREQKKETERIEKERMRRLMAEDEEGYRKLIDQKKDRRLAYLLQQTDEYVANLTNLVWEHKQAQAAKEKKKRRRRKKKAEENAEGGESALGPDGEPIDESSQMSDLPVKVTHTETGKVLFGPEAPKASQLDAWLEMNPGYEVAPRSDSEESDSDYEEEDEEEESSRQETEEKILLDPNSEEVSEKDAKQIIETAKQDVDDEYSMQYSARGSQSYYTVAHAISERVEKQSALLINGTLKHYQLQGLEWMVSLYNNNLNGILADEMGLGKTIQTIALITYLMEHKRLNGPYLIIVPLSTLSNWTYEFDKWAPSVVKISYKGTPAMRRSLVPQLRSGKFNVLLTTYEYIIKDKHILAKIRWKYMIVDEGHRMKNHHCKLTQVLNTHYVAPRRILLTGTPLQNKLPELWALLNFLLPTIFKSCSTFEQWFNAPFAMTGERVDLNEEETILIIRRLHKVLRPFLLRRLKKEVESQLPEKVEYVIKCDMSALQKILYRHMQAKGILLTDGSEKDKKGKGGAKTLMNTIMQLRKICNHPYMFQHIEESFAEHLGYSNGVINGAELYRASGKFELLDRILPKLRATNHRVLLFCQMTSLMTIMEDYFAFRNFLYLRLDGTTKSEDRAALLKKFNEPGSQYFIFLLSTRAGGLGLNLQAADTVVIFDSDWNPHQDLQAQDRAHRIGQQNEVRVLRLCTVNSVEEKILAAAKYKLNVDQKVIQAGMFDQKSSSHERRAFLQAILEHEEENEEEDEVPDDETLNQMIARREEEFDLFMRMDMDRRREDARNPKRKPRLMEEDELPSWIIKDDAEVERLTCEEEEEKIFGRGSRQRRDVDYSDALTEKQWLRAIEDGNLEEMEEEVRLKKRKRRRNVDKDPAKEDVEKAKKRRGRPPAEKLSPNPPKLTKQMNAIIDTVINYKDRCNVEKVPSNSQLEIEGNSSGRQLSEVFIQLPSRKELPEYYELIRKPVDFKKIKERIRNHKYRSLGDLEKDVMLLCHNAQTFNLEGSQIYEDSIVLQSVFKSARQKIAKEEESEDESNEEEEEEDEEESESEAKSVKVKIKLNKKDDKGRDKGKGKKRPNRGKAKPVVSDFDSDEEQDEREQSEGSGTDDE

Regarding `COc1cc(F)cc(-c2csc(NC(=O)CNC(=O)c3ccc4c(c3)[C@](C)(F)COC4)n2)c1` [Compound 337, (S)-4-fluoro-N-(2-((4-(3-fluoro-5-methoxyphenyl)thiazol-2-yl)amino)-2-oxoethyl)-4-methylisochromane-6-carboxamide], in experiment [1], the IC50 (usually the point on the concentration scale where inhibition reaches its midpoint) is less than 0.1 µM and the Emax was more than 95%. Further, in experiment [2], the “BRM Max % Inhibition” value was more than 95% and the IC50 is less than 0.1 µM.

In the case of `C[C@@H]1CN(c2cccc(-c3csc(NC(=O)CNC(=O)c4ccc5c(c4)CCCCO5)n3)n2)C[C@H](C)O1` [Compound 338, N-(2-((4-(6-((cis)-2,6-dimethylmorpholino)pyridin-2-yl)thiazol-2-yl)amino)-2-oxoethyl)-2,3,4,5-tetrahydrobenzo[b]oxepine-7-carboxamide], in experiment [1], the IC50 lay within 0.1 to 1 µM and the Emax was more than 90%. Further, in experiment [2], the “BRM Max % Inhibition” value is listed as more than 90% and the IC50 lay in the range of 0.1 to 1 µM.

As to `C[C@@]1(C#N)COCc2ccc(C(=O)NCC(=O)Nc3nc(-c4cc(F)c5c(c4)OCO5)cs3)cc21` [Compound 339, (R)-4-cyano-N-(2-((4-(7-fluorobenzo[d][1,3]dioxol-5-yl)thiazol-2-yl)amino)-2-oxoethyl)-4-methylisochromane-6-carboxamide], in experiment [1], the IC50 was less than 0.1 µM and the Emax is more than 95%. In experiment [2], the “BRM Max % Inhibition” value was more than 95% and the IC50 is less than 0.1 µM.

Regarding `CC1CC(c2cccc(-c3csc(NC(=O)CNC(=O)c4ccc5c(c4)[C@](C)(C#N)COC5)n3)c2)O1` (stereo partly drawn) [Compound 340, (R)-4-cyano-4-methyl-N-(2-((4-(3-(4-methyloxetan-2-yl)phenyl)thiazol-2-yl)amino)-2-oxoethyl)isochromane-6-carboxamide], in experiment [1], the IC50 is 0.1 to 1 µM and the Emax is more than 95%. For the same compound, in experiment [2], the “BRM Max % Inhibition” value is listed as more than 95% and the IC50 is less than 0.1 µM.

Consider `C[C@@]1(F)COCc2ccc(C(=O)NCC(=O)Nc3nc(-c4cccc(C(F)F)c4)cs3)cc21` [Compound 341, (S)-N-(2-((4-(3-(difluoromethyl)phenyl)thiazol-2-yl)amino)-2-oxoethyl)-4-fluoro-4-methylisochromane-6-carboxamide], for which, in experiment [1], the IC50 lay within 0.1 to 1 µM and the Emax was more than 95%. Moreover, in experiment [2], the “BRM Max % Inhibition” value is on record as more than 95% and the IC50 was less than 0.1 µM.

Turning to `C[C@@]1(C#N)COCc2ccc(C(=O)NCC(=O)Nc3nc(-c4cccc(N5CC(F)(F)C5)c4)cs3)cc21` [Compound 342, (R)-4-cyano-N-(2-((4-(3-(3,3-difluoroazetidin-1-yl)phenyl)thiazol-2-yl)amino)-2-oxoethyl)-4-methylisochromane-6-carboxamide], in experiment [1], the IC50 fell in the range of 0.1 to 1 µM and the Emax was more than 95%. Further, in experiment [2], the “BRM Max % Inhibition” value is more than 95% and the IC50 was less than 0.1 µM.

For the compound `O=C(CNC(=O)c1cccc(C2(C(F)F)COC2)c1)Nc1nc(-c2cccc(C(F)F)c2)cs1` [Compound 344, 3-(3-(difluoromethyl)oxetan-3-yl)-N-(2-((4-(3-(difluoromethyl)phenyl)thiazol-2-yl)amino)-2-oxoethyl)benzamide], in experiment [1], the IC50 lay in the range of 0.1 to 1 µM and the Emax is more than 95%. For the same compound, in experiment [2], the “BRM Max % Inhibition” value was more than 95% and the IC50 lay within 0.1 to 1 µM.

`C[C@@H]1CN(c2cccc(-c3csc(NC(=O)CNC(=O)c4cccc(C5(C(F)F)CCOC5)c4)n3)c2)C[C@H](C)O1` (stereo partly drawn) [Compound 345, 3-(3-(difluoromethyl)tetrahydrofuran-3-yl)-N-(2-((4-(3-((cis)-2,6-dimethylmorpholino)phenyl)thiazol-2-yl)amino)-2-oxoethyl)benzamide]: in experiment [1], the 50% inhibitory concentration (IC50) lay in the range of 1 to 5 µM and the Emax was more than 95%. For the same compound, in experiment [2], the “BRM Max % Inhibition” value was more than 95% and the IC50 is less than 0.1 µM.

For the compound `CC1COCc2ccc(C(=O)NCC(=O)Nc3nc(-c4cccc(N5C[C@@H](C)O[C@@H](C)C5)n4)cs3)cc21` (stereo partly drawn) [Compound 346, N-(2-((4-(6-((cis)-2,6-dimethylmorpholino)pyridin-2-yl)thiazol-2-yl)amino)-2-oxoethyl)-4-methylisochromane-6-carboxamide], in experiment [1], the IC50 was 0.1 to 1 µM and the Emax was more than 95%. Moreover, in experiment [2], the “BRM Max % Inhibition” value was more than 95% and the IC50 is less than 0.1 µM.

Turning to `C[C@@H]1CN(c2cc(-c3csc(NC(=O)CNC(=O)c4ccc5c(c4)[C@](C)(C#N)COC5)n3)ccn2)C[C@H](C)O1` [Compound 347, (R)-4-cyano-N-(2-((4-(2-((cis)-2,6-dimethylmorpholino)pyridin-4-yl)thiazol-2-yl)amino)-2-oxoethyl)-4-methylisochromane-6-carboxamide], in experiment [1], the IC50 was less than 0.1 µM and the Emax is more than 95%. In experiment [2], the “BRM Max % Inhibition” value is more than 95% and the IC50 was less than 0.1 µM.

`C[C@@]1(C#N)COCc2ccc(C(=O)NCC(=O)Nc3nc(-c4cccc(N5CC6(CCO6)C5)c4)cs3)cc21` [Compound 348, (R)-N-(2-((4-(3-(1-oxa-6-azaspiro[3.3]heptan-6-yl)phenyl)thiazol-2-yl)amino)-2-oxoethyl)-4-cyano-4-methylisochromane-6-carboxamide]: in experiment [1], the IC50 fell in the range of 0.1 to 1 µM and the Emax was more than 95%. For the same compound, in experiment [2], the “BRM Max % Inhibition” value is more than 95% and the IC50 is less than 0.1 µM.

Turning to `C[C@@H]1CN(c2cccc(-c3csc(NC(=O)CNC(=O)c4ccc5c(c4)[C@]4(CCO4)COC5)n3)n2)C[C@H](C)O1` [Compound 349, (R)-N-(2-((4-(6-((cis)-2,6-dimethylmorpholino)pyridin-2-yl)thiazol-2-yl)amino)-2-oxoethyl)spiro[isochromane-4,2′-oxetane]-6-carboxamide], in experiment [1], the IC50 fell in the range of 0.1 to 1 µM and the Emax was more than 95%. Also, in experiment [2], the “BRM Max % Inhibition” value is given as more than 95% and the IC50 is less than 0.1 µM.

On to `C[C@@H]1CN(c2cccc(-c3csc(NC(=O)CNC(=O)c4ccc5c(c4)[C@@]4(CCO4)COC5)n3)n2)C[C@H](C)O1` [Compound 350, (S)-N-(2-((4-(6-((cis)-2,6-dimethylmorpholino)pyridin-2-yl)thiazol-2-yl)amino)-2-oxoethyl)spiro[isochromane-4,2′-oxetane]-6-carboxamide], for which, in experiment [1], the IC50 lay in the range of 1 to 5 µM and the Emax was more than 95%. In addition, in experiment [2], the “BRM Max % Inhibition” value is more than 95% and the IC50 was less than 0.1 µM.

`CC1CCN1c1cccc(-c2csc(NC(=O)CNC(=O)c3ccc4c(c3)[C@](C)(C#N)COC4)n2)c1` (stereo partly drawn) [Compound 351, (4R)-4-cyano-4-methyl-N-(2-((4-(3-(2-methylazetidin-1-yl)phenyl)thiazol-2-yl)amino)-2-oxoethyl)isochromane-6-carboxamide]: in experiment [1], the IC50 was less than 0.1 µM and the Emax is more than 95%. Moreover, in experiment [2], the “BRM Max % Inhibition” value is reported as more than 95% and the IC50 was less than 0.1 µM.

For the compound `C[C@@]1(C#N)COCc2ccc(C(=O)NCC(=O)Nc3nc(-c4cc(F)c5c(c4)CCO5)cs3)cc21` [Compound 352, (R)-4-cyano-N-(2-((4-(7-fluoro-2,3-dihydrobenzofuran-5-yl)thiazol-2-yl)amino)-2-oxoethyl)-4-methylisochromane-6-carboxamide], in experiment [1], the IC50 is less than 0.1 µM and the Emax is more than 95%. In experiment [2], the “BRM Max % Inhibition” value is reported as more than 95% and the IC50 was less than 0.1 µM.

As for `C[C@@]1(C#N)COCc2ccc(C(=O)NCC(=O)Nc3nc(-c4cc(F)c5c(c4)OCC5)cs3)cc21` [Compound 353, (R)-4-cyano-N-(2-((4-(4-fluoro-2,3-dihydrobenzofuran-6-yl)thiazol-2-yl)amino)-2-oxoethyl)-4-methylisochromane-6-carboxamide], in experiment [1], the IC50 is less than 0.1 µM and the Emax is more than 95%. Also, in experiment [2], the “BRM Max % Inhibition” value is more than 95% and the IC50 was less than 0.1 µM.

Turning to `COC(=O)N1CCC[C@@H](c2csc(NC(=O)CNC(=O)c3ccc4c(c3)[C@](C)(C#N)COC4)n2)C1` [Compound 355, methyl (R)-3-(2-(2-((R)-4-cyano-4-methylisochromane-6-carboxamido)acetamido)thiazol-4-yl)piperidine-1-carboxylate], in experiment [1], the IC50 lay in the range of 0.1 to 1 µM and the Emax was more than 95%. For the same compound, in experiment [2], the “BRM Max % Inhibition” value was more than 95% and the IC50 was less than 0.1 µM.

Turning to `CC1(F)COCc2ccc(C(=O)NCC(=O)Nc3nc(-c4cccc(N5CCC5)c4)cs3)cc21` (centres unmarked) [Compound 356, N-(2-((4-(3-(azetidin-1-yl)phenyl)thiazol-2-yl)amino)-2-oxoethyl)-4-fluoro-4-methylisochromane-6-carboxamide], in experiment [1], the IC50 was 0.1 to 1 µM and the Emax is more than 95%. Besides, in experiment [2], the “BRM Max % Inhibition” value was more than 95% and the IC50 is less than 0.1 µM.

Consider `C[C@@H]1CN(c2cccc(-c3csc(NC(=O)CNC(=O)c4cccc([C@]5(F)C[C@@H](F)C5)c4)n3)n2)C[C@H](C)O1` [Compound 357, 3-((1S,3S)-1,3-difluorocyclobutyl)-N-(2-((4-(6-((cis)-2,6-dimethylmorpholino)pyridin-2-yl)thiazol-2-yl)amino)-2-oxoethyl)benzamide], for which, in experiment [1], the IC50 lay within 0.1 to 1 µM and the Emax was more than 90%. In experiment [2], the “BRM Max % Inhibition” value is reported as more than 90% and the IC50 lay within 0.1 to 1 µM.

For `C[C@@H]1CN(c2cccc(-c3csc(NC(=O)CNC(=O)c4cccc([C@]5(F)C[C@H](F)C5)c4)n3)n2)C[C@H](C)O1` [Compound 358, 3-((1R,3R)-1,3-difluorocyclobutyl)-N-(2-((4-(6-((cis)-2,6-dimethylmorpholino)pyridin-2-yl)thiazol-2-yl)amino)-2-oxoethyl)benzamide], in experiment [1], the IC50 was in the range of 0.1 to 1 µM and the Emax is more than 95%. For the same compound, in experiment [2], the “BRM Max % Inhibition” value is given as more than 95% and the IC50 was less than 0.1 µM.
